Reference: the NIST ThermoML archive (doi:10.1021/je100423n)

Key:
[1] = Molar enthalpy of transition or fusion; settings: Crystal; DSC
[2] = Crystal; DTA
[3] = molar heat capacity at constant pressure; settings: 101.33 kPa, Crystal

Cn1cc[n+](CCCS(=O)(=O)[O-])c1 [3-(1-methyl-1H-imidazolium-3-yl)propane-1-sulfonate]
Settings	Molar enthalpy of transition or fusion [kJ/mol]	Normal melting temperature [°C]
[1]	28.4	–
[2]	–	217.30

[3]
Settings	molar heat capacity at constant pressure [J/K/mol]
79.8 K	86.51
81.82 K	88.12
83.72 K	89.95
85.64 K	89.73
87.56 K	93.2
89.49 K	95.76
91.4 K	97.65
93.32 K	99.15
95.24 K	102.59
97.17 K	103.14
99.12 K	102.97
101.85 K	103.15
104.55 K	104.71
106.45 K	105.28
108.39 K	105.7
110.33 K	111.76
112.29 K	111.65
114.18 K	111.92
116.13 K	115.43
118.1 K	116.28
120.05 K	114.78
121.97 K	115.61
123.88 K	119.92
125.82 K	122.24
127.79 K	123.43
129.74 K	125.12
131.67 K	124.91
133.59 K	127.13
135.53 K	131.14
137.52 K	130.24
139.48 K	129.74
141.43 K	131.92
143.37 K	134.51
145.33 K	134.71
147.34 K	135.23
149.32 K	136.3
151.86 K	137.15
154.34 K	136.69
156.25 K	139.22
158.24 K	141.2
160.2 K	143.21
162.16 K	143.46
164.1 K	142.79
166.03 K	143.55
167.95 K	145.47
169.86 K	147.4
171.84 K	148.97
173.85 K	149.72
175.86 K	149.26
177.86 K	149.24
179.85 K	152.16
181.84 K	150.39
183.8 K	154.14
185.77 K	156.95
187.72 K	158.74
189.66 K	159.79
191.59 K	160.39
193.51 K	162.15
195.43 K	163.86
197.4 K	164.54
199.41 K	165.47
201.87 K	167.03
204.26 K	168.03
206.21 K	169.73
208.23 K	170.72
210.24 K	171.01
212.24 K	172.7
214.24 K	173.59
216.23 K	174.98
218.22 K	175.65
220.2 K	176.48
222.16 K	177.33
224.13 K	178.37
226.09 K	179.05
228.04 K	180.76
229.98 K	181.37
231.89 K	182.01
233.91 K	183.89
235.92 K	184.74
237.85 K	185.76
239.79 K	186.01
242.05 K	187.95
244.34 K	187.83
246.29 K	188.35
248.25 K	190.3
250.19 K	193.13
252.14 K	194.47
254.07 K	195.68
255.99 K	196.3
257.92 K	197.35
259.83 K	198.68
261.74 K	199.57
263.64 K	200.05
265.55 K	201.61
267.43 K	202.34
269.32 K	203.12
271.3 K	205.52
273.27 K	206.92
275.24 K	208.19
277.3 K	209.38
279.36 K	210.92
281.42 K	212.37
283.48 K	214.25
285.52 K	216.3
287.56 K	218.37
289.55 K	220.99
293.53 K	222.83
295.51 K	223.55
297.5 K	224.52
299.48 K	225.32
301.46 K	225.86
303.43 K	227.02
305.4 K	226.03
307.36 K	230.37
309.31 K	235.18
311.27 K	235.45
313.22 K	236.03
315.16 K	234.76
317.1 K	236.03
319.02 K	238.01
320.95 K	239.81
322.87 K	240.52
324.78 K	243.51
326.69 K	246.23
328.59 K	244.95
330.48 K	246.48
332.37 K	249.83
334.35 K	249.15
336.32 K	251.01
338.27 K	250.4
340.28 K	254.4
342.23 K	256.8
344.09 K	255.82
345.86 K	260.16
347.69 K	257.32
349.6 K	262.66
351.56 K	261.97
353.54 K	259.52
355.49 K	263.89
357.41 K	266.15
359.38 K	268.15
361.39 K	270.9
363.37 K	269.56
365.32 K	267.19
367.26 K	270.08
369.16 K	275.79
371.1 K	275.4
373.06 K	275.42
375 K	277.14
376.96 K	279.35
378.97 K	280.38
380.96 K	281.24
383.24 K	283.27
385.55 K	285.76
387.47 K	284.6
389.43 K	285.05
391.54 K	286.7
393.53 K	288.42
395.46 K	290.84
